Measurements from patent US7115594B2, “Use of 2-methylene-19-nor-20(S)-1α,25-dihydroxyvitamin D3 to increase bone strength” (Wisconsin Alumni Research Foundation, priority 2000, dated 2006).
“Also recorded” adds a separate entry of the source. Each block holds one compound with its values, some of them ahead of it.

Legend:
[1] = biological target: T1, porcine intestinal vitamin D receptor (Sus scrofa, UniProt A3RGC1); assay: Competitive binding of [3H]-1,25-(OH)2-D3 to the porcine intestinal vitamin D receptor; settings: FIG. 1, standard 1,25-(OH)2D3
T1 construct: from tissue; host or cells: pig intestine (nuclear receptor preparation)
T1 sequence (A3RGC1 1-427): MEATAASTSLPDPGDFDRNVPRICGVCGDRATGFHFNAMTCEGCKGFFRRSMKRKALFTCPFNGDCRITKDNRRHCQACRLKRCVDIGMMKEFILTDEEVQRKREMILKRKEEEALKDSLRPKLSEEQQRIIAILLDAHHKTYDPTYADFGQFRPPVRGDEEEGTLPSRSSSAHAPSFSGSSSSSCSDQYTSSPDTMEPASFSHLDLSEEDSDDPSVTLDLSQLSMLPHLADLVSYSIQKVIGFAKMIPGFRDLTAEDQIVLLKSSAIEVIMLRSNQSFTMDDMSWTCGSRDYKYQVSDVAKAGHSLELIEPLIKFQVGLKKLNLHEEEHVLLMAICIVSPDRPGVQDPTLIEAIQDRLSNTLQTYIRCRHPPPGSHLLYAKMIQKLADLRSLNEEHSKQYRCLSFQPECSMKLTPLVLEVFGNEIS
Method: FIG. 1 is a graph illustrating the relative activity of 2-methylene-19-nor-20(S)-1α,25-dihydroxyvitamin D3, 2-methylene-19-nor-1α,25-dihydroxyvitamin D3 and 1α,25-dihydroxyvitamin D3 to compete for binding of [^3H]-1,25-(OH)2-D3 to the vitamin D pig intestinal nuclear receptor;
Competitive binding of the analogs to the porcine intestinal receptor was carried out by the method described by Dame et al (Biochemistry 25, 4523–4534, 1986).

[2] = tested on: ovariectomized old female rats; assay: Treatment of ovariectomized old female rats (bone mass, serum calcium, femur ash); settings: for BMC / BMC/Body Wt. / BMD / Body Wt. / Femur Ash / Femur Ash (%) / Serum CA: ovariectomized rats, mean ± SEM
[3] = tested on: intestinal calcium transport; assay: Intestinal calcium transport activity; format: in vivo; settings: FIG. 2
From the text: FIG. 2 is a graph illustrating the intestinal calcium transport activity of 2-methylene-19-nor-20(S)-1α,25-dihydroxyvitamin D3 as compared to 1α,25-dihydroxyvitamin D3;
The in vivo tests of increasing serum calcium of rats on a zero calcium diet provides an insight to […] or bone activity of 2MD.

[4] = tested on: ovariectomized old female rats; assay: Strength of femurs and vertebrae to mechanical stress (animals of Table 1); format: in vivo; settings: for Stress Value Femur / Stress Value Vertebra: ovariectomized rats
[5] = tested on: Rhesus monkeys; assay: Single oral dose in Rhesus monkeys, serum calcium; format: in vivo; settings: single oral dose of 27 μg; 10 Kg Rhesus monkey; preliminary
From the text: FIGS. 7 and 8 snow a six week toxicity study in rats showing that 2MD appears safe at up to 30 pmol/day.
These and other tests indicate that primates will tolerate 2MD extremely well which may give a very large window between efficacy and the danger of hypercalcemia in man.

- binding to the vitamin D receptor compared to 1,25-(OH)2D3 [1]: about as active as 1,25(OH)2D3
- binding to the vitamin D receptor compared to 1,25-(OH)2D3 ([1]; listed as 2-methylene-20(S)-19-nor-1,25-(OH)2D3): bound equally well
- Body Wt. ([2]; 32 pmol/d 2X/Week, 8 weeks): 375 ± 8.2 g
- Body Wt. ([2]; 32 pmol/d 2X/Week, 17 weeks): 373 ± 11.0 g
- Body Wt. ([2]; 32 pmol/d 2X/Week, 30 weeks): 346 ± 11.0 g
- Serum CA ([2]; 32 pmol/d 2X/Week, 30 weeks): 10.8 ± 0.22 mg/dL
- Body Wt. ([2]; 65 pmol/d 1X/Week, 8 weeks): 408 ± 10.5 g
- Body Wt. ([2]; 65 pmol/d 1X/Week, 17 weeks): 402 ± 11.3 g
- Body Wt. ([2]; 65 pmol/d 1X/Week, 30 weeks): 393 ± 15.0 g
- Serum CA ([2]; 65 pmol/d 1X/Week, 30 weeks): 10.7 ± 0.46 mg/dL
SMILES: C=C1[C@H](O)CC(=C/C=C2\CCC[C@]3(C)[C@@H]([C@@H](C)CCCC(C)(C)O)CC[C@@H]23)C[C@H]1O [2MD, 2-methylene-19-nor-20(S)-1α,25-dihydroxyvitamin D3]
- restoring bone of ovariectomized, old female rats ([2]; 32 pmol given 2 times per week, compared to 1,25(OH)2D3 at high doses 3 times per week): very effective in restoring bone
- building bone mass in ovariectomized rats ([2]; compared to the native hormone / sham-operated controls, FIGS. 4 and 6): extraordinarily effective in building bone mass; also recorded: causes an increase in bone mass above that of sham-operated controls
- serum calcium concentration in ovariectomized rats ([2]; dosage levels used in the bone mass study): without increasing serum calcium concentration; also recorded: no change in serum calcium
- % ash in the femur ([2]; ovariectomized old female rats): increases % ash in the femur; also recorded: percent ash is unexpectedly increased further
- BMC ([2]; 32 pmol/d 2X/Week, 8 weeks): 8.4 ± 0.13 g
- BMC/Body Wt. ([2]; 32 pmol/d 2X/Week, 8 weeks): 22.4 ± 0.64 mg/g
- BMD ([2]; 32 pmol/d 2X/Week, 8 weeks): 0.295 ± 0.009 g/cm^2
- BMC ([2]; 32 pmol/d 2X/Week, 17 weeks): 9.7 ± 0.19 g
- BMC/Body Wt. ([2]; 32 pmol/d 2X/Week, 17 weeks): 26.2 ± 0.92 mg/g
- BMD ([2]; 32 pmol/d 2X/Week, 17 weeks): 0.313 ± 0.011 g/cm^2
- BMC ([2]; 32 pmol/d 2X/Week, 30 weeks): 11.6 ± 0.40 g
- BMC/Body Wt. ([2]; 32 pmol/d 2X/Week, 30 weeks): 33.4 ± 1.60 mg/g
- BMD ([2]; 32 pmol/d 2X/Week, 30 weeks): 0.331 ± 0.006 g/cm^2
- Femur Ash ([2]; 32 pmol/d 2X/Week, 30 weeks): 462 ± 21.4 mg
- Femur Ash (%) ([2]; 32 pmol/d 2X/Week, 30 weeks): 65.6 ± 1.7%
- BMC ([2]; 65 pmol/d 1X/Week, 8 weeks): 8.5 ± 0.23 g
- BMC/Body Wt. ([2]; 65 pmol/d 1X/Week, 8 weeks): 22.2 ± 0.53 mg/g
- BMD ([2]; 65 pmol/d 1X/Week, 8 weeks): 0.293 ± 0.004 g/cm^2
- BMC ([2]; 65 pmol/d 1X/Week, 17 weeks): 9.6 ± 0.24 g
- BMC/Body Wt. ([2]; 65 pmol/d 1X/Week, 17 weeks): 24.0 ± 0.80 mg/g
- BMD ([2]; 65 pmol/d 1X/Week, 17 weeks): 0.312 ± 0.005 g/cm^2
- BMC ([2]; 65 pmol/d 1X/Week, 30 weeks): 10.2 ± 0.33 g
- BMC/Body Wt. ([2]; 65 pmol/d 1X/Week, 30 weeks): 26.0 ± 1.10 mg/g
- BMD ([2]; 65 pmol/d 1X/Week, 30 weeks): 0.310 ± 0.009 g/cm^2
- Femur Ash ([2]; 65 pmol/d 1X/Week, 30 weeks): 443 ± 11.6 mg
- Femur Ash (%) ([2]; 65 pmol/d 1X/Week, 30 weeks): 62.5 ± 0.57%
- activity in stimulating intestinal calcium transport compared to 1,25(OH)2D3 [3]: activity similar to that of 1,25-dihydroxyvitamin D3; also recorded: approximately equal that of 1,25-(OH)2D3
- breaking strength in the femurs (cortical strength) ([4]; animals shown in Table 1): increases breaking strength in the femurs
- crushing strength in the vertebra (trabecular strength) ([4]; animals shown in Table 1): increases
- Stress Value Femur ([4]; 32 pmol/d/2X/Week): 134.84 ± 14.12
- Stress Value Vertebra ([4]; 32 pmol/d/2X/Week): 23.93 ± 6.59
- Stress Value Femur ([4]; 65 pmol/d/1X/Week): 133.71 ± 14.06
- Stress Value Vertebra ([4]; 65 pmol/d/1X/Week): 17.07 ± 5.73
- elevation of serum calcium concentration [5]: does not cause significant elevation of serum calcium concentration; also recorded: without appreciably elevating serum calcium concentration

SMILES: C=C1/C(=C\C=C2/CCC[C@]3(C)[C@@H]([C@H](C)CCCC(C)(C)O)CC[C@@H]23)C[C@@H](O)C[C@@H]1O [1,25(OH)2D3, 1α,25-dihydroxyvitamin D3]
- BMC ([2]; 250 pmol/d 5X/Week, 8 weeks): 8.90 ± 0.40 g
- BMC/Body Wt. ([2]; 250 pmol/d 5X/Week, 8 weeks): 22.4 ± 0.48 mg/g
- BMD ([2]; 250 pmol/d 5X/Week, 8 weeks): 0.297 ± 0.001 g/cm^2
- BMC ([2]; 250 pmol/d 5X/Week, 17 weeks): 9.6 ± 0.39 g
- BMC/Body Wt. ([2]; 250 pmol/d 5X/Week, 17 weeks): 24.5 ± 0.87 mg/g
- BMD ([2]; 250 pmol/d 5X/Week, 17 weeks): 0.308 ± 0.008 g/cm^2
- BMC ([2]; 250 pmol/d 5X/Week, 30 weeks): 10.1 ± 0.30 g
- BMC/Body Wt. ([2]; 250 pmol/d 5X/Week, 30 weeks): 26.1 ± 0.97 mg/g
- BMD ([2]; 250 pmol/d 5X/Week, 30 weeks): 0.310 ± 0.007 g/cm^2
- Femur Ash ([2]; 250 pmol/d 5X/Week, 30 weeks): 417 ± 23 mg
- Femur Ash (%) ([2]; 250 pmol/d 5X/Week, 30 weeks): 60.8 ± 1.1%
- BMC ([2]; 500 pmol/d 3X/Week, 17 weeks): 11.5 ± 0.25 g
- BMC/Body Wt. ([2]; 500 pmol/d 3X/Week, 17 weeks): 27.6 ± 0.68 mg/g
- BMD ([2]; 500 pmol/d 3X/Week, 17 weeks): 0.331 ± 0.008 g/cm^2
- BMC ([2]; 500 pmol/d 3X/Week, 30 weeks): 11.8 ± 0.23 g
- BMC/Body Wt. ([2]; 500 pmol/d 3X/Week, 30 weeks): 28.0 ± 0.69 mg/g
- BMD ([2]; 500 pmol/d 3X/Week, 30 weeks): 0.328 ± 0.008 g/cm^2
- Femur Ash ([2]; 500 pmol/d 3X/Week, 30 weeks): 478 ± 7.5 mg
- Femur Ash (%) ([2]; 500 pmol/d 3X/Week, 30 weeks): 61.4 ± 1.3%
- BMC ([2]; 500 pmol/d 5X/Week, 8 weeks): 10.2 ± 0.40 g
- BMC/Body Wt. ([2]; 500 pmol/d 5X/Week, 8 weeks): 26.3 ± 0.57 mg/g
- BMD ([2]; 500 pmol/d 5X/Week, 8 weeks): 0.312 ± 0.005 g/cm^2
- Stress Value Femur ([4]; 250 pmol/day/5X/Week): 118.21 ± 19.85
- Stress Value Vertebra ([4]; 250 pmol/day/5X/Week): 19.24 ± 5.66
- Stress Value Femur ([4]; 500 pmol/d/3-5X/Week): 116.47 ± 16.20
- Stress Value Vertebra ([4]; 500 pmol/d/3-5X/Week): 17.14 ± 0.52
